Assay results: patent US9212168B2 (priority 2011, dated 2015)

Columns and labels:
HCV genotype 1b replicon = HCV genotype 1b replicon assay (Renilla luciferase readout); type: cell-based, hepatitis C virus; settings: for EC50: Hepatitis C virus, read-out: Genotype 1b; for Genotype 1b: HCV genotype 1b replicon
In short: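 Huh7-derived APC144 subgenomic replicon cells carrying Renilla luciferase–NS3-NS5B, seeded 10,000/well without G418, then treated with compound dose-responses for 48 h at 37 °C (0.5% DMSO final). Luciferase signal fitted by 4-parameter model to EC50, reported as pEC50.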

HCV genotype 1a replicon = HCV genotype 1a replicon assay (NS3 protease activity readout); type: cell-based, hepatitis C virus; settings: for EC50: Hepatitis C virus, read-out: Genotype 1a, HCV genotype 1a replicon; for Genotype 1a: HCV genotype 1a replicon
In short: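 Genotype 1a subgenomic replicon cells (APC89, Huh7.5) were treated with compound dose-responses in G418-free medium, 0.5% DMSO final, for 48 or 72 hours at 37° C. Lysate NS3/4a protease activity measured with 15 μM FRET substrate, 20 min at 37° C (ex 340/em 509 nm); EC50 by 4-parameter fit.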

| Structure (SMILES) | EC50 (HCV genotype 1b replicon) [nM] | EC50 (HCV genotype 1a replicon) [nM] | Genotype 1b (HCV genotype 1b replicon) | Genotype 1a (HCV genotype 1a replicon) |
| --- | --- | --- | --- | --- |
| COC(=O)N[C@H](C(=O)N1C[C@@H](C)C[C@H]1c1nc(-c2ccc(-c3cc(Cl)c(NC(=O)c4ccc(N5CCN(C(=O)C67CC(CO)(C6)C7)C[C@H]5C)nc4)cc3OC(F)(F)F)cc2)c[nH]1)C(C)C [Example 12-50] | < 0.1 | < 0.1 | – | – |
| C[C@H]1C[C@@H](c2nc(-c3ccc(-c4cc(Cl)c(NC(=O)c5ccc(N6CCN(C(=O)C(C)(C)C)C[C@H]6C)nc5)cc4OC(F)(F)F)cc3)c[nH]2)N(C(=O)[C@@H](c2ccccc2)N2CCCCC2)C1 [Example 13-1] | < 0.1 | < 0.1 | – | – |
| COC(=O)N[C@H](C(=O)N1C[C@@H](C)C[C@H]1c1nc(-c2ccc(-c3cc(Cl)c(NC(=O)c4ccc(N5CCN(C(=O)C(C)(C)C)C[C@H]5C)nc4)cc3OC(F)(F)F)cc2)c[nH]1)C(C)(C)O [Example 13-5] | < 0.1 | < 0.1 | – | – |
| COC(=O)NC(C(=O)N1CC(C)CC1c1nc(-c2ccc(-c3ccc(NC(=O)c4ccc(N5CCN(C(=O)C(C)(C)C)CC5C)nc4)cc3OC(F)(F)F)cc2)c[nH]1)C1CCOCC1 (stereo not shown) [Example 13-12] | – | – | D (D represents pEC50>10 (EC50<0.1 nM)) | D (D represents pEC50>10 (EC50<0.1 nM)) |
| COC(=O)N[C@H](C(=O)N1C[C@@H](C)C[C@H]1c1nc(-c2ccc(-c3cc(Cl)c(NC(=O)c4ccc(N5CCN(C(=O)C(C)(C)CO)C[C@H]5C)nc4)cc3OC(F)(F)F)cc2)c[nH]1)C(C)(C)O [Example 13-16] | < 0.1 | < 0.1 | – | – |
| COC(=O)N[C@H](C(=O)N1C[C@@H](C)C[C@H]1c1nc(-c2ccc(-c3cc(Cl)c(NC(=O)c4ccc(N5CCN(C(=O)C(C)(C)CO)C[C@H]5C)nc4)cc3OC(F)(F)F)cc2)c[nH]1)[C@H](C)O [Example 13-17] | < 0.1 | < 0.1 | – | – |
| COC(=O)N[C@H](C(=O)N1C[C@@H](C)C[C@H]1c1nc(-c2ccc(-c3cc(Cl)c(NC(=O)c4ccc(N5CCN(C(=O)C(C)(C)CO)C[C@H]5C)nc4)cc3OC(F)(F)F)cc2)c[nH]1)[C@H](C)OC [Example 13-18] | < 0.1 | < 0.1 | – | – |
| COC(=O)N[C@H](C(=O)N1C[C@@H](C)C[C@H]1c1nc(-c2ccc(-c3cc(Cl)c(NC(=O)c4ccc(N5CCN(C(=O)C(C)(C)CO)C[C@H]5C)nc4)cc3OC(F)(F)F)cc2)c[nH]1)C1CCOCC1 [Example 13-19] | < 0.1 | < 0.1 | – | – |
| COC(=O)N[C@H](C(=O)N1C[C@@H](C)C[C@H]1c1nc(-c2ccc(-c3cc(F)c(NC(=O)c4ccc(N5CCN(C(=O)C(C)(C)C)C[C@H]5C)nc4)cc3OC(F)(F)F)cc2)c[nH]1)[C@H](C)O [Example 13-20] | < 0.1 | < 0.1 | – | – |
| COC(=O)N[C@H](C(=O)N1C[C@@H](C)C[C@H]1c1nc(-c2ccc(-c3cc(F)c(NC(=O)c4ccc(N5CCN(C(=O)C(C)(C)C)C[C@H]5C)nc4)cc3OC(F)(F)F)cc2)c[nH]1)[C@H](C)OC [Example 13-21] | < 0.1 | < 0.1 | – | – |
| COC(=O)N[C@H](C(=O)N1C[C@@H](C)C[C@H]1c1nc(-c2ccc(-c3cc(F)c(NC(=O)c4ccc(N5CCN(C(=O)C(C)(C)C)C[C@H]5C)nc4)cc3OC(F)(F)F)cc2)c[nH]1)C1CCOCC1 [Example 13-22] | < 0.1 | < 0.1 | – | – |
| COC(=O)N[C@H](C(=O)N1C[C@@H](C)C[C@H]1c1nc(-c2ccc(-c3cc(F)c(NC(=O)c4ccc(N5CCN(C(=O)C(C)(C)C)C[C@H]5C)nc4)cc3OC(F)(F)F)cc2)c[nH]1)C(C)(C)O [Example 13-24] | < 0.1 | < 0.1 | – | – |
| COC(=O)N[C@H](C(=O)N1C[C@@H](C)C[C@H]1c1nc(-c2ccc(-c3cc(F)c(NC(=O)c4ccc(N5CCN(C(=O)C(C)(C)CO)C[C@H]5C)nc4)cc3OC(F)(F)F)cc2)c[nH]1)C1CCOCC1 [Example 13-27] | < 0.1 | < 0.1 | – | – |
| COC(=O)NC(C(=O)N1CC(C)CC1c1nc(-c2ccc(-c3ccc(NC(=O)c4ccc(N5CCN(C(=O)C(C)(C)CO)CC5C)nc4)cc3OC(F)(F)F)cc2)c[nH]1)C(C)(C)O (stereo not shown) [Example 13-28] | – | – | D (D represents pEC50>10 (EC50<0.1 nM)) | D (D represents pEC50>10 (EC50<0.1 nM)) |
| COC(=O)NC(C(=O)N1CC(C)CC1c1nc(-c2ccc(-c3ccc(NC(=O)c4ccc(N5CCN(C(=O)C(C)(C)CO)CC5C)nc4)cc3OC(F)(F)F)cc2)c[nH]1)C(C)C (stereo not shown) [Example 13-29] | – | – | D (D represents pEC50>10 (EC50<0.1 nM)) | D (D represents pEC50>10 (EC50<0.1 nM)) |
| COC(=O)NC(C(=O)N1CC(C)CC1c1nc(-c2ccc(-c3ccc(NC(=O)c4ccc(N5CCN(C(=O)C(C)(C)CO)CC5C)nc4)cc3OC(F)(F)F)cc2)c[nH]1)C(C)O (stereo not shown) [Example 13-30] | – | – | D (D represents pEC50>10 (EC50<0.1 nM)) | D (D represents pEC50>10 (EC50<0.1 nM)) |

| Structure (SMILES) | EC50 (HCV genotype 1b replicon) [nM] | EC50 (HCV genotype 1a replicon) [nM] | Genotype 1b (HCV genotype 1b replicon) | Genotype 1a (HCV genotype 1a replicon) |
| --- | --- | --- | --- | --- |
| COC(=O)NC(C(=O)N1CC(C)CC1c1nc(-c2ccc(-c3ccc(NC(=O)c4ccc(N5CCN(C(=O)C(C)(C)CO)CC5C)nc4)cc3OC(F)(F)F)cc2)c[nH]1)C(C)OC (stereo not shown) [Example 13-31] | – | – | D (D represents pEC50>10 (EC50<0.1 nM)) | D (D represents pEC50>10 (EC50<0.1 nM)) |
| COC(=O)NC(CC1CCOCC1)C(=O)N1C[C@@H](C)C[C@H]1c1nc(-c2ccc(-c3cc(Cl)c(NC(=O)c4ccc(N5CCN(C(=O)C(C)(C)C)C[C@H]5C)nc4)cc3OC(F)(F)F)cc2)c[nH]1 (stereo partly shown) [Example 13-34] | < 0.1 | < 0.1 | – | – |
| COC(=O)NC(C(=O)N1C[C@@H](C)C[C@H]1c1nc(-c2ccc(-c3cc(Cl)c(NC(=O)c4ccc(N5CCN(C(=O)C(C)(C)C)C[C@H]5C)nc4)cc3OC(F)(F)F)cc2)c[nH]1)C1CCC(=O)CC1 (stereo partly shown) [Example 13-35] | < 0.1 | < 0.1 | – | – |
| COC(=O)NC(C(=O)N1C[C@@H](C)C[C@H]1c1nc(-c2ccc(-c3cc(Cl)c(NC(=O)c4ccc(N5CCN(C(=O)C(C)(C)C)C[C@H]5C)nc4)cc3OC(F)(F)F)cc2)c[nH]1)C1CCCOC1 (stereo partly shown) [Example 13-38] | < 0.1 | < 0.1 | – | – |
| COC(=O)N[C@H](C(=O)N1C[C@@H](C)C[C@H]1c1nc(-c2ccc(-c3cc(Cl)c(NC(=O)c4ccc(N5CCN(C(=O)C(C)(C)C)C[C@H]5C)nc4)cc3OC(F)(F)F)cc2)c[nH]1)C1C[C@@H](C)O[C@@H](C)C1 (stereo partly shown) [Example 13-42] | < 0.1 | < 0.1 | – | – |
| COC(=O)N[C@H](C(=O)N1C[C@@H](C(N)=O)C[C@H]1c1nc(-c2ccc(-c3cc(Cl)c(NC(=O)c4ccc(N5CCN(C(=O)C(C)(C)CO)C[C@H]5C)nc4)cc3OC(F)(F)F)cc2)c[nH]1)C(C)C [Example 15-3] | < 0.1 | < 0.1 | – | – |
| COC(=O)N[C@H](C(=O)N1C[C@@H](C#N)C[C@H]1c1nc(-c2ccc(-c3cc(Cl)c(NC(=O)c4ccc(N5CCN(C(=O)C(C)(C)C)C[C@H]5C)nc4)cc3OC(F)(F)F)cc2)c[nH]1)C(C)C [Example 15-11] | < 0.1 | < 0.1 | – | – |
| COC(=O)N[C@H](C(=O)N1C[C@@H](C#N)C[C@H]1c1nc(-c2ccc(-c3cc(Cl)c(NC(=O)c4ccc(N5CCN(C(=O)C(C)(C)CO)C[C@H]5C)nc4)cc3OC(F)(F)F)cc2)c[nH]1)C(C)C [Example 15-12] | < 0.1 | < 0.1 | – | – |
| COC(=O)N[C@H](C(=O)N1C[C@@H](OC)C[C@H]1c1nc(-c2ccc(-c3cc(Cl)c(NC(=O)c4ccc(N5CCN(C(=O)C(C)(C)C)C[C@H]5C)nc4)cc3OC(F)(F)F)cc2)c[nH]1)C(C)(C)O [Example 16-1] | – | – | D (D represents pEC50>10 (EC50<0.1 nM)) | D (D represents pEC50>10 (EC50<0.1 nM)) |
| COC(=O)N[C@H](C(=O)N1C[C@@H](OC)C[C@H]1c1nc(-c2ccc(-c3cc(Cl)c(NC(=O)c4ccc(N5CCN(C(=O)C(C)(C)C)C[C@H]5C)nc4)cc3OC(F)(F)F)cc2)c[nH]1)[C@H](C)O [Example 16-2] | – | – | D (D represents pEC50>10 (EC50<0.1 nM)) | D (D represents pEC50>10 (EC50<0.1 nM)) |
| COC(=O)NC(C(=O)N1CC(OC)CC1c1nc(-c2ccc(-c3cc(Cl)c(NC(=O)c4ccc(N5CCN(C(=O)C(C)(C)C)CC5C)nc4)cc3OC(F)(F)F)cc2)c[nH]1)C(C)OC (stereo not shown) [Example 16-3] | – | – | D (D represents pEC50>10 (EC50<0.1 nM)) | D (D represents pEC50>10 (EC50<0.1 nM)) |
| COC(=O)NC(C(=O)N1CC(OC)CC1c1nc(-c2ccc(-c3cc(F)c(NC(=O)c4ccc(N5CCN(C(=O)C(C)(C)C)CC5C)nc4)cc3OC(F)(F)F)cc2)c[nH]1)C(C)O (stereo not shown) [Example 16-4] | – | – | D (D represents pEC50>10 (EC50<0.1 nM)) | D (D represents pEC50>10 (EC50<0.1 nM)) |
| COC(=O)NC(C(=O)N1CC(OC)CC1c1nc(-c2ccc(-c3cc(F)c(NC(=O)c4ccc(N5CCN(C(=O)C(C)(C)C)CC5C)nc4)cc3OC(F)(F)F)cc2)c[nH]1)C(C)OC (stereo not shown) [Example 16-5] | – | – | D (D represents pEC50>10 (EC50<0.1 nM)) | D (D represents pEC50>10 (EC50<0.1 nM)) |
| COC(=O)NC(C(=O)N1CC(OC)CC1c1nc(-c2ccc(-c3cc(Cl)c(NC(=O)c4ccc(N5CCN(C(=O)C(C)(C)CO)CC5C)nc4)cc3OC(F)(F)F)cc2)c[nH]1)C(C)O (stereo not shown) [Example 16-7] | – | – | D (D represents pEC50>10 (EC50<0.1 nM)) | D (D represents pEC50>10 (EC50<0.1 nM)) |
| COC(=O)NC(C(=O)N1CC(OC)CC1c1nc(-c2ccc(-c3cc(F)c(NC(=O)c4ccc(N5CCN(C(=O)C(C)(C)CO)CC5C)nc4)cc3OC(F)(F)F)cc2)c[nH]1)C(C)OC (stereo not shown) [Example 16-13] | – | – | D (D represents pEC50>10 (EC50<0.1 nM)) | D (D represents pEC50>10 (EC50<0.1 nM)) |
| COC(=O)NC(C(=O)N1CC(OC)CC1c1nc(-c2ccc(-c3cc(F)c(NC(=O)c4ccc(N5CCN(C(=O)C(C)(C)CO)CC5C)nc4)cc3OC(F)(F)F)cc2)c[nH]1)C(C)(C)O (stereo not shown) [Example 16-14] | – | – | D (D represents pEC50>10 (EC50<0.1 nM)) | D (D represents pEC50>10 (EC50<0.1 nM)) |
